Assay results from patent US10633350B2, “Diphenyl derivatives and uses thereof” (NOVARTIS AG, priority 2017, dated 2020).

The molecules below were run on FoxO3a (assay: FoxO3a inhibition assay (GFP-FoxO3a nuclear to cytoplasmic translocation) in U2OS GFP-FoxO3a H212R reporter cells). Settings: Homo sapiens, 0.5 h, serum starved overnight, 30 minutes compound treatment, ratio of nuclear to cytosolic GFP intensity, AC50 = concentration that results in 50% activation or inhibition, read-out: FoxO AC50.
Format: cell-based
Protocol: Phosphorylation of Akt on S473 and FoxO3a nuclear to cytoplasmic translocation were used as readouts of PI3K/Akt/mTOR pathway activation downstream of growth factor signaling.
Reporter cell line. U2OS GFP-FoxO3a H212R reporter cell line was established by transducing U2OS cells with the retroviral plasmid pLEGFP-C1 containing FoxO3a H212R transgene and selecting for G418 resistant clones.
Reporter assay. U2OS GFP-FoxO3a H212R cells were plated in 384-well plates at 4000 cells per well in 30 microliters of McCoy's 5A medium containing 10% FBS. On day 1 the cells were washed with serum free medium and serum starved overnight. On day 2 the cells were treated with different doses of the compounds for 30 minutes, fixed with 4% Paraformaldehyde for 1 hour and stained with Phospho-AKT (Ser473) antibody (Cell Signaling Technology, catalog #4060) overnight at 4° C. After nuclei staining with Hoechst 33342 (Life Technologies, catalog # H3570) the plates were imaged with InCell 2000 (GE Healthcare Bio-Sciences). FoxO3a inhibition activity is calculated as the ratio of nuclear to cytosolic GFP intensity in percent. Akt activation is measured as the total cellular intensity of Phospho-Akt antibody staining in percent. DMSO control is set as 0% activity.
With `Cc1nc(C(N)=O)nn1-c1ccc(Cc2ccc(-c3ccc(CN4CC(F)(F)C4)cc3)cc2)cc1` [Example 39-33] the AC50 was 42 nM.
Work on `Cc1nc(C(N)=O)nn1-c1ccc(Cc2ccc(-c3ccc(CN4CCN[C@@H](C)C4)nc3)cc2)cc1` [Example 36, (S)-5-methyl-1-(4-(4-(6-((3-methylpiperazin-1-yl)methyl)pyridin-3-yl)benzyl)phenyl)-1H-1,2,4-triazole-3-carboxamide] yielded an AC50 of 183 nM.
`Cc1nc(C(N)=O)nn1-c1ccc(Cc2ccc(-c3ccc(CN4CC(CO)C4)cc3)cc2)cc1` [Example 39-36] showed an AC50 of 164 nM.
`Cc1nc(C(N)=O)nn1-c1ccc(Cc2ccc(-c3ccc(CN4C[C@H](O)[C@@H](O)C4)cc3)cc2)cc1` [Example 39-29] gave an AC50 of 180 nM.
In the case of `Cc1nc(C(N)=O)nn1-c1ccc(Cc2ccc(C3CC4(CC(C(=O)N5CCNCC5)C4)C3)cc2)cc1` (stereo not shown) [Example 44, 5-methyl-1-(4-(4-(6-(piperazine-1-carbonyl)spiro[3.3]heptan-2-yl)benzyl)phenyl)-1H-1,2,4-triazole-3-carboxamide], the AC50 is reported as 134 nM.
`Cc1cc(C(N)=O)nn1-c1ccc(Cc2ccc(C34CCC(C(=O)N5CCN(C)CC5)(CC3)CC4)cc2)cc1` [Example 43, 5-methyl-1-(4-(4-(4-(4-methylpiperazine-1-carbonyl)bicyclo[2.2.2]octan-1-yl)benzyl)phenyl)-1H-pyrazole-3-carboxamide] gave an AC50 of 17 nM.
`Cc1nc(C(N)=O)nn1-c1ccc(Cc2ccc(-c3ccc(CN4CCC5CN(C)CC54)cc3)cc2)cc1` (stereo not shown) [Example 39-15] showed an AC50 of 5 nM.
`Cc1nc(C(N)=O)nn1-c1ccc(Cc2ccc(-c3ccc(CN4CCN(C(C)(C)C)CC4)cc3)cc2)cc1` [Example 39-17] was tested, and the AC50 was 85 nM.
`Cc1nc(C(N)=O)nn1-c1ccc(Cc2ccc(-c3ccc(CN4CCC(C(F)(F)F)CC4)cc3)cc2)cc1` [Example 39-35] was tested, and the AC50 was 145 nM.
`Cc1nc(C(N)=O)nn1-c1ccc(Cc2ccc(-c3ccc(CN4CCCC[C@H]4CO)cc3)cc2)cc1` [Example 39-22] was tested, and the AC50 was 98 nM.
Molecule `Cc1nc(C(N)=O)nn1-c1ccc(Cc2ccc(-c3ccc(CN4CCC(F)(F)CC4)cc3)cc2)cc1` [Example 39-20] has an AC50 of 140 nM.
For `Cc1nc(C(N)=O)nn1-c1ccc(Cc2ccc(-c3ccc(CN4CCC(S(C)(=O)=O)C4)cc3)cc2)cc1` (stereo not shown) [Example 39-14], the AC50 was 54 nM.
In the case of `Cc1cc(C(N)=O)nn1-c1ccc(Cc2ccc(-c3ccc(C(C)(C)O)nn3)cc2)cc1` [Example 58, 1-(4-(4-(6-(2-hydroxypropan-2-yl)pyridazin-3-yl)benzyl)phenyl)-5-methyl-1H-pyrazole-3-carboxamide], the AC50 is reported as 225 nM.
`Cc1nc(C(N)=O)nn1-c1ccc(Cc2ccc(-c3ccc(CN4CCC5(COC5)C4)cc3)cc2)cc1` [Example 38-1, 1-(4-((4′-((2-oxa-6-azaspiro[3.4]octan-6-yl)methyl)-[1,1′-biphenyl]-4-yl)methyl)phenyl)-5-methyl-1H-1,2,4-triazole-3-carboxamide] showed an AC50 of 2 nM.
`Cc1nc(C(N)=O)nn1-c1ccc(Cc2ccc(-c3ccc(CN4CCCC(C)(O)C4)cc3)cc2)cc1` (stereo not shown) [Example 39-16] was tested, and the AC50 was 56 nM.
For `Cc1nc(C(N)=O)nn1-c1ccc(Cc2ccc(-c3ccc(CN4C[C@@H]5[C@@H](CO)[C@@H]5C4)cc3)cc2)cc1` [Example 39-34], the AC50 was 10 nM.
For `Cc1cc(C(N)=O)nn1-c1ccc(Cc2ccc(-c3ccc(CN4CCN(C5COC5)CC4)cn3)cc2)cc1` [Example 33, 5-methyl-1-(4-(4-(5-((4-(oxetan-3-yl)piperazin-1-yl)methyl)pyridin-2-yl)benzyl)phenyl)-1H-pyrazole-3-carboxamide], the AC50 was 138 nM.
`Cc1nc(C(N)=O)nn1-c1ccc(Cc2ccc(-c3ccc(CN4CCC(O)CC4)cc3)cc2)cc1` [Example 39-25] showed an AC50 of 105 nM.
In the case of `Cc1nc(C(N)=O)nn1-c1ccc(Cc2ccc(-c3ccc(CN4CC(O)C4)cc3)cc2)cc1` [Example 39-8], the AC50 is reported as 864 nM.
`Cc1nnc(-c2cccc(-c3ccc(Cc4ccc(-n5nc(C(N)=O)cc5C)cc4)cc3)c2)o1` [Example 3-7, 5-methyl-1-(4-((3′-(5-methyl-1,3,4-oxadiazol-2-yl)-[1,1′-biphenyl]-4-yl)methyl)phenyl)-1H-pyrazole-3-carboxamide] was tested, and the AC50 was 499 nM.
`Cc1nc(C(N)=O)nn1-c1ccc(Cc2ccc(-c3ccc(CN4C[C@@H](C)N[C@H](C)C4)cc3)cc2)cc1` [Example 39-9] showed an AC50 of 123 nM.
`Cc1nc(C(N)=O)nn1-c1ccc(Cc2ccc(-c3ccc(C(C)(C)NCC(C)(C)O)cc3)cc2)cc1` [Example 64, 1-(4-((4′-(2-((2-hydroxy-2-methylpropyl)amino)propan-2-yl)-[1,1′-biphenyl]-4-yl)methyl)phenyl)-5-methyl-1H-1,2,4-triazole-3-carboxamide] was tested, and the AC50 was 62 nM.
In the case of `Cc1cc(C(N)=O)nn1-c1ccc(Cc2ccc(-c3cnc(C(C)(C)O)nc3)cc2)cc1` [Example 60, 1-(4-(4-(2-(2-hydroxypropan-2-yl)pyrimidin-5-yl)benzyl)phenyl)-5-methyl-1H-pyrazole-3-carboxamide], the AC50 is reported as 83 nM.
In the case of `Cc1nc(C(N)=O)nn1-c1ccc(Cc2ccc(-c3ccc(CN4CCCC5(COC5)C4)cc3)cc2)cc1` [Example 38-6], the AC50 is reported as 74 nM.
Work on `Cc1cc(C(N)=O)nn1-c1ccc(Cc2ccc(C34CCC(C(=O)N5CCNCC5)(CC3)CC4)cc2)cc1` [Example 42, 5-methyl-1-(4-(4-(4-(piperazine-1-carbonyl)bicyclo[2.2.2]octan-1-yl)benzyl)phenyl)-1H-pyrazole-3-carboxamide] yielded an AC50 of 55 nM.
For `Cc1cc(C(N)=O)nn1-c1ccc(Cc2ccc(-c3ccc(C(=O)N4CCNCC4)cn3)cc2)cc1` [Example 27, 5-methyl-1-(4-(4-(5-(piperazine-1-carbonyl)pyridin-2-yl)benzyl)phenyl)-1H-pyrazole-3-carboxamide], the AC50 was 213 nM.
For `Cc1cc(C(N)=O)nn1-c1ccc(Cc2ccc(-c3ccnc(CO)c3)cc2)cc1` [Example 61, 1-(4-(4-(2-(hydroxymethyl)pyridin-4-yl)benzyl)phenyl)-5-methyl-1H-pyrazole-3-carboxamide], the AC50 was 187 nM.
`Cc1nc(C(N)=O)nn1-c1ccc(Cc2ccc(-c3ccc(CN4CCN[C@@H](CO)C4)cc3)cc2)cc1` [Example 39-12] was tested, and the AC50 was 181 nM.
For `Cc1nc(C(N)=O)nn1-c1ccc(Cc2ccc(-c3ccc(CN4C[C@H]5CCN(C)[C@H]5C4)cc3)cc2)cc1` [Example 39-30], the AC50 was 32 nM.
Molecule `Cc1nc(C(N)=O)nn1-c1ccc(Cc2ccc(-c3ccc(CN4CCCC(F)C4)cc3)cc2)cc1` (stereo not shown) [Example 39-27] has an AC50 of 46 nM.
Work on `Cc1nc(C(N)=O)nn1-c1ccc(Cc2ccc(-c3ccc(CN4CC[C@@H](F)C4)cc3)cc2)cc1` [Example 39-13] yielded an AC50 of 79 nM.
Molecule `Cc1cc(C(N)=O)nn1-c1ccc(Cc2ccc(-c3ccc(C(C)(C)CO)cn3)cc2)cc1` [Example 57, 1-(4-(4-(5-(1-hydroxy-2-methylpropan-2-yl)pyridin-2-yl)benzyl)phenyl)-5-methyl-1H-pyrazole-3-carboxamide] has an AC50 of 49 nM.
Work on `Cc1nc(C(N)=O)nn1-c1ccc(Cc2ccc(-c3ccc(CN4C[C@H]5COC[C@H]5C4)cc3)cc2)cc1` [Example 39-26] yielded an AC50 of 31 nM.
`Cc1nc(C(N)=O)nn1-c1ccc(Cc2ccc(-c3ccc(CN4CCC(C)(O)C4)cc3)cc2)cc1` (stereo not shown) [Example 39-10] was tested, and the AC50 was 13 nM.
In the case of `Cc1nc(C(N)=O)nn1-c1ccc(Cc2ccc(-c3ccc(CN4CCC(S(C)(=O)=O)CC4)cc3)cc2)cc1` [Example 39-31], the AC50 is reported as 49 nM.
For `Cc1nc(C(N)=O)nn1-c1ccc(Cc2ccc(-c3ccc(CN4CCCC(C(C)(C)O)C4)cc3)cc2)cc1` (stereo not shown) [Example 39-7], the AC50 was 29 nM.
For `Cc1nc(C(N)=O)nn1-c1ccc(Cc2ccc(-c3ccc(CN4C[C@H]5CN(C)C[C@H]5C4)cc3)cc2)cc1` [Example 38-3], the AC50 was 35 nM.
For `Cc1nc(C(N)=O)nn1-c1ccc(Cc2ccc(-c3ccc(CN4CC(C)(O)C4)cc3)cc2)cc1` [Example 39-24], the AC50 was 406 nM.
Work on `Cc1nc(C(N)=O)nn1-c1ccc(Cc2ccc(-c3ccc(CN4CCN5CCCCC5C4)cc3)cc2)cc1` (stereo not shown) [Example 39-21] yielded an AC50 of 60 nM.
For `Cc1nc(C(N)=O)nn1-c1ccc(Cc2ccc(-c3ccc(CN4CCC(CO)CC4)cc3)cc2)cc1` [Example 39-23], the AC50 was 18 nM.
`Cc1nc(C(N)=O)nn1-c1ccc(Cc2ccc(-c3ccc(O[C@H]4CCN(C)C4)cc3)cc2)cc1` [Example 62, (S)-5-methyl-1-(4-((4′-((1-methylpyrrolidin-3-yl)oxy)-[1,1′-biphenyl]-4-yl)methyl)phenyl)-1H-1,2,4-triazole-3-carboxamide] was tested, and the AC50 was 20 nM.
For `Cc1nc(C(N)=O)nn1-c1ccc(Cc2ccc(-c3ccc(CN4CCNC(C)(C)C4)cc3)cc2)cc1` [Example 39-18], the AC50 was 81 nM.
With `Cc1nc(C(N)=O)nn1-c1ccc(Cc2ccc(-c3ccc(O[C@@H]4CCN(C)C4)cc3)cc2)cc1` [Example 63, (R)-5-methyl-1-(4-((4′-((1-methylpyrrolidin-3-yl)oxy)-[1,1′-biphenyl]-4-yl)methyl)phenyl)-1H-1,2,4-triazole-3-carboxamide] the AC50 was 11 nM.
With `Cc1nc(C(N)=O)nn1-c1ccc(Cc2ccc(-c3ccc(CN4C[C@@H](C)N[C@@H](C)C4)cc3)cc2)cc1` [Example 39-19] the AC50 was 65 nM.
`Cc1nc(C(N)=O)nn1-c1ccc(Cc2ccc(-c3ccc(CN4CCC(N(C)C)CC4)cc3)cc2)cc1` [Example 39-2] showed an AC50 of 5 nM.
With `Cc1nc(C(N)=O)nn1-c1ccc(Cc2ccc(-c3ccc(CN4CCCN(C)CC4)cc3)cc2)cc1` [Example 39-28] the AC50 was 39 nM.
